Measured values as given in patent US20250109165A1, “CYCLOPHILIN INHIBITORS AND USES THEREOF” (The Broad Institute, Inc., priority 2022, published 2025).

What was measured:
[1] = tested on: A549, HeLa, HEK293T, HepG2, and MEFs; assay: Cellular esterase activity on ester pro-drug Cy5 derivatives; type: in vitro ADME, human and mouse; conditions: 6 μM, 48 hours (36 hours for HepG2)
Protocol: Cellular esterase activity on ester pro-drug Cy5 derivatives of CypD inhibitors. Into 96-well clear, flat-bottom TC-treated plates, cells were seeded in DMEM supplemented with 10% FBS for HEK293T, HeLa, and MEFs, F-12K supplemented with 10% FBS for A549, or MEM supplemented with 10% FBS for HepG2, 24 hours prior at a density where wells were ˜70% confluent at time of experiment. Media was removed and cells were incubated with 100 μL of mixture containing each Cy5-conjugated compound (6 μM) in their respective media at 1% DMSO for 48 hours (36 hours for HepG2) at 37° C. at 5% CO2. Supernatant was removed, and cells were washed 2 times with 100 μL of PBS pH 7.4 (Gibco). Cells were then lysed for 15 minutes with 30 μL of 10 mM Tris-HCl pH 8.0 buffer containing 0.05% SDS. Lysates were diluted with 100 μL acetonitrile and filtered. Lysates were analyzed by LC-MS at Harvard's Center for Mass Spectroscopy. Di-ester, mono-ester, and di-acid abundances were quantified by total ion count of the primary isotope, and the three compounds were summed and each one expressed as a fraction of the total sum.

[2] = biological target: T1, CypD (Homo sapiens, UniProt P30405); assay: Chymotrypsin coupled prolyl-isomerase assay; type: biochemical
T1 construct: PPIF (UniProtKB Entry P30405: res 45-207); made in house; host or cells: E. coli BL21(DE3)
T1 sequence (P30405 45-207): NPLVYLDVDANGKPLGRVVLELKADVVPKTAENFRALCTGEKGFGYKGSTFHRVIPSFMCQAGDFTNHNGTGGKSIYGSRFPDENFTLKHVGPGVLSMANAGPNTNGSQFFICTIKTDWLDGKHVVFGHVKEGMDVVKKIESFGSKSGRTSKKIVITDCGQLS
Protocol: IC50 values were calculated to be the value at which 50% inhibition was achieved on each compound's non-linear regression fitted curve.

[3] = biological target: T2, human carboxylesterase (CES1) (Homo sapiens, UniProt P23141); assay: In vitro esterase activity on ester pro-drug Cy5 derivatives; type: in vitro ADME; conditions: 0.25 μM CES1, 37° C., 8 hours
T2 sequence (P23141 18-567): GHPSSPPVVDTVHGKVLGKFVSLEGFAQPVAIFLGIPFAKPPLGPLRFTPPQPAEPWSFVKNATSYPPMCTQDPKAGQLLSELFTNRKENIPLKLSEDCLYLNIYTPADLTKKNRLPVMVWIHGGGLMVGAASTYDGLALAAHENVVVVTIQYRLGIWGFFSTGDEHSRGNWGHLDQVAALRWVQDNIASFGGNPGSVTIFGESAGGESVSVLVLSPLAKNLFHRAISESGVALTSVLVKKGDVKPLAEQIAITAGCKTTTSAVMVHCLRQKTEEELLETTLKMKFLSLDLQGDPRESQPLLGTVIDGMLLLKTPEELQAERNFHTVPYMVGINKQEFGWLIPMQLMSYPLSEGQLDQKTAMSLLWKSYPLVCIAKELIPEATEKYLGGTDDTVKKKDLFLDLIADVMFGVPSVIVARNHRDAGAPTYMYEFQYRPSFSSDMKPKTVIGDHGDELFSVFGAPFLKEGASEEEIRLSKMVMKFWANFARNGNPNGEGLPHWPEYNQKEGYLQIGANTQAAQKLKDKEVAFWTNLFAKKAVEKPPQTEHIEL
Protocol: In vitro esterase activity on ester pro-drug Cy5 derivatives of CypD inhibitors. Into PCR tubes, ester compound (6 μM) and either buffer only, CES1 (0.25 μM), or CES2 (0.25 μM) was diluted in 100 mM Tris-HCl buffer, pH 7.4, with a final DMSO concentration of 1%. Samples were maintained on a PCR block at 37° C. for 8 hours. After incubation, samples were diluted with 20 μL acetonitrile and analyzed by LC-MS at Harvard's Center for Mass Spectroscopy. Di-ester, mono-ester, and di-acid abundances were quantified by total ion count of the primary isotope, and the three compounds were summed and each one expressed as a fraction of the total sum.

[4] = tested on: HeLa cells; assay: Fluorescence microscopy on HeLa cells; type: cell-based, human; conditions: Cy5 labeled compound 6 μM
In short: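 HeLa cells in DMEM with 10% FBS, seeded 24 h earlier to ~80% confluence, were stained for 1 h at 37 °C with 6 µM Cy5-labelled compound in HEPES-buffered Krebs-Ringer, pH 7.2. Hoechst 33342 and MitoTracker Green were then added for 15 min. After washing, live cells were imaged in Alexa 488, Alexa 647 and Hoechst channels.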

CCOC(=O)C(Cc1ccc(-c2ccc(C[C@H]3NC(=O)[C@@]4(Cc5ccccc5)CCCN(C4)C(=O)/C=C/C(=O)NCC[C@H](C(=O)NCCNC(=O)CCCCCN4\C(=C/C=C/C=C/C5=[N+](C)c6ccccc6C5(C)C)C(C)(C)c5ccccc54)NC(=O)Cc4ccccc4CNC3=O)cc2)cc1)C(=O)OCC [*B52-Et-Cy5]
intracellular conversion to di-acid by endogenous esterases [1]: readily converted to the corresponding di-acid
CypD prolyl-isomerase inhibition (in words) [2]: did not potently inhibit
hydrolysis of ester prodrug by CES1 [3]: hydrolyzed to their active dicarboxylate forms
mitochondrial localization (overlap with Mitotracker Green) [4]: good mitochondrial localization
plasma membrane / mammalian cell permeability [4]: Strong mammalian cell permeability and mitochondrial localization
